We go through two molecules from publication PMC7993375, “Discovery of novel quinoline-based analogues of combretastatin A-4 as tubulin polymerisation inhibitors with apoptosis inducing activity and potent anticancer effect” (Journal of Enzyme Inhibition and Medicinal Chemistry, 2021).

Experiment [1] deals with MCF-7, HL-60, HCT-116 and HeLa. Briefly: MTT cell viability assay, statements over all four cancer cell lines. The class given is cell-based, human. The note with it: Homo sapiens. The procedure: (§1) The four human tumour cell lines MCF-7, HCT-116, HL-60 and HeLa used in this study were obtained from the VACSERA (Giza, Egypt) cell culture unit that were originally acquired from ATCC (Manassas, VA, USA). All the human tumour cell lines were cultured in Dulbecco’s Modified Eagle’s Medium (DMEM) with 10% foetal bovine serum, 2 mM L-glutamine and 100 µg/mL penicillin/streptomycin. Cells were maintained at 37 °C in 5% CO2 in a humidified incubator. All cells were sub-cultured 3 times/week by trypsinisation using TrypLE Express (1X).
(§2) The quinoline compounds were evaluated for antiproliferative effect using the MTT viability assay of four cancer cell lines (MCF-7, HCT-116, HL-60 and HeLa) and normal breast cells MCF-10A to calculate the relative IC50 values for each compound. Cells were seeded in triplicate in 96-well plates at a density of 10 × 10^3 cells/ml in a total volume of 200 µl per well. 0.1% of DMSO was used as a vehicle control. Following, the cells were treated with 2 µl test compound (from stock solutions in ethanol) to furnish the concentration range of study, 1 nM to 50 µM, and re-incubated for a further 72 h. The culture medium was then removed, and the cells washed with 100 µL phosphate buffered saline (PBS) and 50 µL MTT added, to reach a final concentration of 1 mg/mL. Cells were incubated for 2 h in darkness at 37 °C. Solubilisation was begun through the addition of […] DMSO, and the cells maintained at room temperature in darkness for 20 min to ensure thorough colour diffusion before reading the absorbance. Plates were incubated for 72 h at 37 °C + 5% CO2. The MTT (5 mg/mL in PBS) was added and incubated for another 4 h, and the optical density was detected with a microplate reader at 570 nm. Results were expressed as percentage viability relative to vehicle control (100%). Dose response curves were plotted and IC50 values (concentration of drug resulting in 50% reduction in cell survival) were obtained using the commercial software package Prism (GraphPad Software, Inc., La Jolla, CA, USA). All the experiments were repeated in at least three independent experiments.

For experiment [2], the system named is pro-apoptotic protein Bax. Briefly: Bax ELISA, expression level in MCF-7 cells. The class given is cell-based, human. The note with it: MCF-7, 250 nM, 48 h. The method, then: The level of the anti-apoptotic marker and apoptotic marker BAX were assessed using Bcl-2 Elisa kit and human Bax ELISA Kit purchased from Zymed laboratories, invitrogen and Cloud-Clone Crop. (Katy, TX, USA), respectively, following the manufacturer’s instructions. Briefly, Treated MCF-7 cell lysate with 250 nM of compound 12c were prepared, and equal amount of cell lysates were loaded and propped with specific antibodies. The samples were measured and analysed at 450 nm in ROBONEK P2000 ELISA reader. In Vitro Caspase-9 Activation Assay was performed using human active caspase-9 Invitrogen EIA kit according to the manufacturer’s instructions. Compound 12c at concentrations of 50 and 250 nM and CA-4 (50 nM) were prepared in dH2O up to a final volume of 50 µL/well followed by addition of 5 µL of active caspase-9. Following, the cells were mixed and 50 µL of the Master Mix was added to each well and allowed to react at 37 °C for 1 h. The fluorescence intensity of the test samples was recorded and analysed in a fluorescence plate reader at 400 nm excitation and 505 nm emissions. All experiments were conducted in triplicates.

Another experiment has as its system bovine brain tubulin. Briefly: Tubulin polymerisation assay. Particulars: Tubulin was at 10 µM; read-out: Tubulin assembly IC50 (inhibition of tubulin polymerisation). The class given is biochemical. The method, then: The assembly of purified bovine tubulin was monitored using a kit, BK006, purchased from Cytoskeleton Inc., (Denver, CO, USA). The assay was carried out in accordance with the manufacturer’s instructions using the standard assay conditions. Briefly, purified ([…]) in a buffer consisting of 80 mM PIPES (pH 6.9), 0.5 mM EGTA, 2 mM MgCl2, 1 mM GTP and 10% glycerol was incubated at 37 °C in the presence of either vehicle (2% (v/v) ddH2O), CA-4, or the quinoline compounds. Light is scattered proportionally to the concentration of polymerised microtubules in the assay. Therefore, tubulin assembly was monitored turbidimetrically at 340 nm in a Spectramax 340 PC spectrophotometer (Molecular Devices, Sunnyvale, CA, USA). The concentration that inhibits tubulin polymerisation by 50% (IC50) was determined using area under the curve (AUC). The AUC of the untreated controls were considered as 100% polymerisation. The IC50 value for each compound was computed using GraphPad Prism Software.

The subject of experiment [3] is MCF-7 cells. The experiment in a line: Wound healing assay. The class given is cell-based, human. The method, then: MCF-7 were grown in 6-well plates for 24 h, and scratches were made using pipette tip and washed with PBS to remove non-adherent cell debris. Subsequently, the cells were treated with different concentrations of 12c for 24 h. The migrations across the wound area were photographed under a phase contrast microscopy.

In experiment [4] the test system is MCF-7 cells. The experiment in a line: Intracellular ROS production (H2-DCFDA). The class given is cell-based, human. Particulars: 24 h, untreated 1.0%. The method, then: Mitochondrial membrane potential (Δψmt) was measured by flow cytometry with DiOC2(3) staining and additional labelling with an annexin V conjugate. After treatment with compound 12c (50 and 250 nM) and CA-4 (50 nM), cells were stained with DiOC2(3) dye for 30 min in the incubator, then harvested and washed with PBS. DiOC2(3)-stained cells were resuspended with 1X annexin binding buffer, followed by addition of annexin V conjugate and incubated at 37 °C for 15 min. The data from the flow cytometry were analysed by Cell Quest software. Production of intracellular reactive oxygen species (ROS) was measured using 2,7–dichlorofluorescin diacetate (H2-DCFDA) dye. MCF-7 cells were seeded and treated either with vehicle (0.1% DMSO) or with compound 12c (50 and 250 nM) or CA-4 (50 nM) for 6, 12 and 24 h. H2O2 was used as a positive control. The amount of ROS generated was estimated after 2 h of selected compound treatment. The cells were collected by centrifugation and washed twice with PBS. Cells were then incubated with DCFDA dye (25 µM) in dark at 37 °C for 1 h. Fluorescence spectra (510 − 600 nm) were monitored using an excitation wavelength of 488 nm[53]^,[54].

In another experiment the test system is HeLa. Briefly: MTT cell viability assay, HeLa cervical adenocarcinoma cells. The class given is cell-based. Particulars: Homo sapiens, 72 h. The procedure: as §1, §2
The next experiment concerns HL-60. Briefly: MTT cell viability assay, HL-60 leukaemia cells. The class given is cell-based. Particulars: Homo sapiens. The procedure:
as §1, §2

A further experiment has as its system MCF-10A. Briefly: MTT cell viability assay, normal epithelial breast MCF-10A cells. The class given is cell-based. The note with it: Homo sapiens, 72 h. The method, then:
as §2, with “Dose response curves were plotted and IC50 values (concentration of drug resulting in 50% reduction in cell survival) were obtained using the commercial software package Prism (GraphPad Software, Inc., La Jolla, CA, USA). All the experiments were repeated in at least three independent experiments.” left out

[5] abbreviates: 72 h, read-out: IC50 value, HL-60.

Where two headings read alike, the source gives them in different places. Bounds are passed on as bounds.

Take `COc1cc(C2=NC(=Cc3cc4ccc(C)cc4nc3OC)C(=O)O2)cc(OC)c1OC` [Compound 12c, 4-[(2-Methoxy-7-methylquinolin-3-yl)methylene]-2–(3,4,5-trimethoxyphenyl) oxazol-5(4H)-one]: the IC50 in experiment [1] is 10 to 42 nM; with bovine brain tubulin, 1210 nM; with HeLa it was 42 ± 1 nM; with HL-60 (setting [5]), 19 nM; with HL-60 (read-out: IC50, HL-60), 10 nM; in the experiment on MCF-10A, greater than 50 µM. In addition, in experiment [2], the “expression of the pro-apoptotic protein Bax” value is “up-regulated”. In the experiment on MCF-7 cells [3], the “MCF-7 cell migration into wound area” value is reported as “significantly inhibited in a dose-dependent manner”. The “levels of ROS in MCF-7 cells” value was determined as 22.7% in the experiment on MCF-7 cells [4] (50 nM) and 26.6% in the experiment on MCF-7 cells [4] (250 nM).
As to `COc1ccc(/C=C\c2cc(OC)c(OC)c(OC)c2)cc1O` [CA-4, Combretastatin A-4], the IC50 was determined as […] with bovine brain tubulin, 64 ± 4 nM with HeLa, 76 ± 4 nM with HL-60 (setting [5]) and 6.1 µM with MCF-10A. Moreover, in the experiment with MCF-7 cells [4] (50 nM), the “levels of ROS in MCF-7 cells” value is 18.3%.
